In ChEMBL document CHEMBL4673334, “In Vivo Biological Evaluation of a Synthetic Royleanone Derivative as a Promising Fast-Acting Trypanocidal Agent by Inducing Mitochondrial-Dependent Necrosis” (J Nat Prod, 2020):
Active and inactive are the calls of the source. The rule behind the calls is not given here.

How the values were obtained:
[1] = Toxicity in BALB/c mouse infected with Trypanosomal Trypanosoma cruzi MHOM/Pe/2011/Arequipa(DTU V) assessed as effect on urea level at 20 mg/kg, po administered for 5 days starting at 100 days post infection and measured after 2 days post treatment; assay type: organism-based; conditions: in vivo, 120 h, time 5 day
Trypanosoma cruzi [2] = test: Antitrypanosomal activity against Trypanosoma cruzi MHOM/Pe/2011/Arequipa(DTU V) amastigote form infected in Vero cells assessed as parasite growth inhibition incubated for 72 hrs by Giemsa-staining based assay; assay type: functional, organism-based
Trypanosoma cruzi [3] = test: Antitrypanosomal activity against Trypanosoma cruzi MHOM/Pe/2011/Arequipa(DTU V) epimastigote form assessed as disruption of ethanol end product level at IC25 concentration incubated for 72 hrs by NMR spectrometric analysis; assay type: functional, organism-based
[4] = Toxicity in BALB/c mouse infected with Trypanosomal Trypanosoma cruzi MHOM/Pe/2011/Arequipa(DTU V) assessed as effect on ALT/GPT level at 20 mg/kg, po administered for 5 days starting at 100 days post infection and measured after 2 days post treatment; assay type: organism-based; conditions: in vivo, 120 h, time 5 day
Trypanosoma cruzi [5] = test: Antitrypanosomal activity against Trypanosoma cruzi MHOM/Pe/2011/Arequipa(DTU V) blood stream trypomastigote form assessed as parasite growth inhibition incubated for 24 hrs by resazurin dye based assay; assay type: functional, organism-based
Trypanosoma cruzi [6] = test: Antitrypanosomal activity against Trypanosoma cruzi MHOM/Pe/2011/Arequipa(DTU V) epimastigote form assessed as disruption of succinic acid level at IC25 concentration incubated for 72 hrs by NMR spectrometric analysis; assay type: functional, organism-based
[7] = Toxicity in BALB/c mouse infected with Trypanosomal Trypanosoma cruzi MHOM/Pe/2011/Arequipa(DTU V) assessed as effect on LDH level at 20 mg/kg, po administered for 5 days starting at 100 days post infection and measured after 2 days post treatment; assay type: organism-based; conditions: in vivo, 120 h, time 5 day
[8] = Selectivity index, ratio of IC50 for cytotoxicity against African green monkey Vero cells to IC50 for antitrypanosomal activity against Trypanosoma cruzi TINF/CH/1956/Tulahuen (DTU VI) epimastigote form; assay type: toxicity, cell-based; conditions: read-out: Ratio IC50
[9] = biological target: Superoxide dismutase [Cu-Zn] (Homo sapiens, UniProt P00441); test: Inhibition of human erythrocytes CuZn-SOD by UV-VIS spectrophotometric method; design: species or system Erythrocyte
Sequence of Superoxide dismutase [Cu-Zn] (P00441 whole entry): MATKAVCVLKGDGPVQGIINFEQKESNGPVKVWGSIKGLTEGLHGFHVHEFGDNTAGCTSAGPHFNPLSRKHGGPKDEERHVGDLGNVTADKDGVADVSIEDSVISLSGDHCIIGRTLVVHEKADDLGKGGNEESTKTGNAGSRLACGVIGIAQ

Trypanosoma cruzi [10] = test: Antitrypanosomal activity against Trypanosoma cruzi MHOM/Pe/2011/Arequipa(DTU V) amastigote form infected in Vero cells assessed as parasite growth inhibition at 50 uM incubated for 72 hrs by Giemsa-staining based assay relative to control; assay type: functional
[11] = Toxicity in BALB/c mouse infected with Trypanosomal Trypanosoma cruzi MHOM/Pe/2011/Arequipa(DTU V) assessed as effect on uric acid level at 20 mg/kg, po administered for 5 days starting at 100 days post infection and measured after 2 days post treatment; assay type: organism-based; conditions: in vivo, 120 h, time 5 day
Trypanosoma cruzi [12] = test: Antitrypanosomal activity against Trypanosoma cruzi MHOM/Pe/2011/Arequipa(DTU V) amastigote form infected in BALB/c mouse assessed as reduction in parasitaemia at 20 mg/kg, po for 5 days and measured after 55 days post infection; assay type: functional, organism-based; conditions: time 5.0 day
[13] = Selectivity index, ratio of IC50 for cytotoxicity against African green monkey Vero cells to IC50 for antitrypanosomal activity against Trypanosoma cruzi MHOM/Pe/2011/Arequipa(DTU V) amastigote form infected in Vero cells; assay type: toxicity, cell-based; conditions: read-out: Ratio IC50
[14] = Toxicity in BALB/c mouse infected with Trypanosomal Trypanosoma cruzi MHOM/Pe/2011/Arequipa(DTU V) assessed as effect on ALP level at 20 mg/kg, po administered for 5 days starting at 9 days post infection and measured after 2 days post treatment; assay type: organism-based; conditions: in vivo, 120 h, time 5 day
Trypanosoma cruzi [15] = test: Antitrypanosomal activity against Trypanosoma cruzi MHOM/Pe/2011/Arequipa(DTU V) epimastigote form assessed as disruption of L-alanine level at IC25 concentration incubated for 72 hrs by NMR spectrometric analysis; assay type: functional, organism-based
[16] = Selectivity index, ratio of IC50 for cytotoxicity against African green monkey Vero cells to IC50 for antitrypanosomal activity against Trypanosoma cruzi IRHOD/CO/2008/SN3 (DTU I) amastigote form infected in Vero cells; assay type: toxicity, cell-based; conditions: read-out: Ratio IC50
[17] = Toxicity in BALB/c mouse infected with Trypanosomal Trypanosoma cruzi MHOM/Pe/2011/Arequipa(DTU V) assessed as effect on uric acid level at 20 mg/kg, po administered for 5 days starting at 9 days post infection and measured after 2 days post treatment; assay type: organism-based; conditions: in vivo, 120 h, time 5 day
Trypanosoma cruzi [18] = test: Antitrypanosomal activity against Trypanosoma cruzi MHOM/Pe/2011/Arequipa(DTU V) epimastigote form assessed as disruption of D-lactate level at IC25 concentration incubated for 72 hrs by NMR spectrometric analysis; assay type: functional, organism-based
[19] = Toxicity in BALB/c mouse infected with Trypanosomal Trypanosoma cruzi MHOM/Pe/2011/Arequipa(DTU V) assessed as effect on […] level at 20 mg/kg, po administered for 5 days starting at 100 days post infection and measured after 2 days post treatment; assay type: organism-based; conditions: in vivo, 120 h, time 5 day
Trypanosoma cruzi [20] = test: Antitrypanosomal activity against Trypanosoma cruzi IRHOD/CO/2008/SN3 (DTU I) blood stream trypomastigote form assessed as parasite growth inhibition incubated for 24 hrs by resazurin dye based assay; assay type: functional, organism-based
Trypanosoma cruzi [21] = test: Antitrypanosomal activity against Trypanosoma cruzi MHOM/Pe/2011/Arequipa(DTU V) amastigote form infected in BALB/c mouse assessed as reactivation parasitaemia at 20 mg/kg, po administered for 5 days starting at 9 days post infection and measured up to 145 days post infection relative to control; assay type: functional
[22] = Toxicity in BALB/c mouse infected with Trypanosomal Trypanosoma cruzi MHOM/Pe/2011/Arequipa(DTU V) assessed as effect on CK-MB level at 20 mg/kg, po administered for 5 days starting at 100 days post infection and measured after 2 days post treatment; assay type: organism-based; conditions: in vivo, 120 h, time 5 day
[23] = Selectivity index, ratio of IC50 for cytotoxicity against African green monkey Vero cells to IC50 for antitrypanosomal activity against Trypanosoma cruzi MHOM/Pe/2011/Arequipa(DTU V) epimastigote form; assay type: toxicity, cell-based; conditions: read-out: Ratio IC50
[24] = Selectivity index, ratio of IC50 for cytotoxicity against African green monkey Vero cells to IC50 for antitrypanosomal activity against Trypanosoma cruzi MHOM/Pe/2011/Arequipa(DTU V) blood stream trypomastigote form; assay type: toxicity, cell-based; conditions: read-out: Ratio IC50
Trypanosoma cruzi [25] = test: Antitrypanosomal activity against Trypanosoma cruzi MHOM/Pe/2011/Arequipa(DTU V) epimastigote form assessed as disruption of acetate level at IC25 concentration incubated for 72 hrs by NMR spectrometric analysis; assay type: functional, organism-based
[26] = Toxicity in BALB/c mouse infected with Trypanosomal Trypanosoma cruzi MHOM/Pe/2011/Arequipa(DTU V) assessed as effect on ALP level at 20 mg/kg, po administered for 5 days starting at 100 days post infection and measured after 2 days post treatment; assay type: organism-based; conditions: in vivo, 120 h, time 5 day
Trypanosoma cruzi [27] = test: Inhibition of mitochondrial membrane potential in Trypanosoma cruzi MHOM/Pe/2011/Arequipa(DTU V) epimastigote form at IC25 concentration after 72 hrs by Rho (FITC-A) staining based flow cytometric analysis; assay type: functional
[28] = Toxicity in BALB/c mouse infected with Trypanosomal Trypanosoma cruzi MHOM/Pe/2011/Arequipa(DTU V) assessed as reduction in weight at 20 mg/kg, po administered for 5 days starting at 9 days post infection and measured up to 145 days post infection; assay type: organism-based; conditions: in vivo, 120 h, time 5 day
Trypanosoma cruzi [29] = test: Antitrypanosomal activity against Trypanosoma cruzi MHOM/Pe/2011/Arequipa(DTU V) amastigote form infected in BALB/c mouse assessed as parasite free organ tissue ratio at 20 mg/kg, po administered for 5 days starting at 9 days post infection and measured up to 145 days post infection by PCR analysis relative to control; assay type: functional; conditions: time 5 day

Row | Structure (SMILES) | Activity [1] | IC50 (Trypanosoma cruzi [2]) [µM] | Activity (Trypanosoma cruzi [3]) | Activity [4] | IC50 (Trypanosoma cruzi [5]) [µM] | Activity (Trypanosoma cruzi [6]) | Activity [7] | selectivity ratio [8] | IC50 [9] [µM] | inhibition at 50 µM (Trypanosoma cruzi [10]) [%] | Activity [11] | Activity (Trypanosoma cruzi [12]) | selectivity ratio [13] | Activity [14] | Activity (Trypanosoma cruzi [15]) | selectivity ratio [16] | Activity [17] | Activity (Trypanosoma cruzi [18]) | Activity [19] | IC50 (Trypanosoma cruzi [20]) [µM] | further results
1 | COC(=O)[C@]1(C)CCC[C@]2(C)C3=C(C=C[C@@H]12)C(=O)C(C(C)C)=CC3=O | Non-Toxic | 4.8 | Active | Non-Toxic | 0.7 | Active | Non-Toxic | > 15 | > 100 | 100 | Non-Toxic | Active | > 40 | Non-Toxic | inactive | > 40 | Non-Toxic | inactive | Non-Toxic | 1.8 | Activity (Trypanosoma cruzi [21]; time 5 day): 52%; Activity [22]: Non-Toxic; selectivity ratio [23]: > 15; selectivity ratio [24]: > 40; Activity (Trypanosoma cruzi [25]): inactive; Activity [26]: Non-Toxic; inhibition (Trypanosoma cruzi [27]): 50%; Activity [28]: Non-Toxic; Activity (Trypanosoma cruzi [29]): 57.1%
2 | CC(C)c1cc(C=O)c([C@@]2(C)CCCC(C)(C)C2=O)cc1O | Non-Toxic | 9.2 | Active | Non-Toxic | 9.9 | Active | Non-Toxic | > 15 | > 100 | 100 | Non-Toxic | Active | > 40 | Non-Toxic | inactive | > 40 | Non-Toxic | inactive | Non-Toxic | 8.7 | Activity (Trypanosoma cruzi [21]; time 5.0 day): Active; Activity [22]: Non-Toxic; selectivity ratio [23]: > 15; selectivity ratio [24]: > 40; Activity (Trypanosoma cruzi [25]): inactive; Activity [26]: Non-Toxic; inhibition (Trypanosoma cruzi [27]): 41.8%; Activity [28]: Non-Toxic; Activity (Trypanosoma cruzi [29]): 28.5%
